Key:
Format in all cases: in vivo
[1] = system: blackgrass (Alopecurus myosuroides); test: Test A preemergence soil spray, visual injury rating 0-100; details: 10 days
Outline: (§1)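 Plants in a loam and sand soil blend were treated with each test chemical, in a non-phytotoxic solvent system including surfactant, either sprayed on seeded soil before emergence or applied after emergence at the one- to two-leaf stage. Ten days later in the greenhouse, plants were compared with untreated controls and visually rated from 0 (no effect) to 100 (complete control).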

[2] = system: wheat (Triticum aestivum); test: as above; details: 10 days
Outline: as §1

[3] = system: ryegrass, Italian (italian ryegrass, Lolium multiflorum); test: as above; details: 10 days
Outline: as §1

[4] = system: green foxtail (Setaria viridis); test: as above; details: 10 days
Outline: as §1

[5] = system: corn (Zea mays); test: as above; details: 10 days
Outline: as §1

[6] = system: barnyardgrass (Echinochloa crus-galli); test: as above; details: 10 days
Outline: as §1

[7] = system: soybean (Glycine max); test: as above; details: 10 days
Outline: as §1

[8] = system: oat, wild (wild oat, Avena fatua); test: as above; details: 10 days
Outline: as §1

[9] = system: ragweed (common ragweed, Ambrosia artemisiifolia); test: as above; details: 10 days
Outline: as §1

[10] = system: palmer (palmer amaranth, palmer pigweed, Amaranthus palmeri); test: as above; details: 10 days
Outline: as §1

[11] = system: kochia (Bassia scoparia); test: as above; details: 10 days
Outline: as §1

[12] = system: rice (Oryza sativa); test: Test B flooded paddy test, visual plant response rating 0-100; details: 250 g ai/ha, Flood, applied to paddy water, evaluated after 13 days
Outline: (§2)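 In this flooded assay, 2-leaf seedlings received compound through the water layer, kept at 3 cm over the soil. Plants were held 13 days in a greenhouse and then visually compared with control pots.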

[13] = system: barnyardgrass (Echinochloa crusgalli); test: as above; details: 250 g ai/ha, Flood, applied to paddy water, evaluated after 13 days
Outline: as §2

[14] = system: ducksalad (Heteranthera limosa); test: as above; details: 250 g ai/ha, Flood, applied to paddy water, evaluated after 13 days
Outline: as §2

[15] = system: sedge, umbrella (small-flower umbrella sedge, Cyperus difformis); test: as above; details: 250 g ai/ha, Flood, applied to paddy water, evaluated after 13 days
Outline: as §2

[16] = system: blackgrass (Alopecurus myosuroides); test: Test A postemergence application, visual injury rating 0-100
Outline: as §1

[17] = system: wheat (Triticum aestivum); test: as above
Outline: as §1

[18] = system: ryegrass, Italian (italian ryegrass, Lolium multiflorum); test: as above
Outline: as §1

[19] = system: horseweed (Erigeron canadensis); test: as above
Outline: as §1

[20] = system: green foxtail (Setaria viridis); test: as above
Outline: as §1

[21] = system: corn (Zea mays); test: as above
Outline: as §1

[22] = system: galium (catchweed bedstraw, Galium aparine); test: as above
Outline: as §1

[23] = system: barnyardgrass (Echinochloa crus-galli); test: as above
Outline: as §1

[24] = system: soybean (Glycine max); test: as above
Outline: as §1

[25] = system: oat, wild (wild oat, Avena fatua); test: as above
Outline: as §1

[26] = system: ragweed (common ragweed, Ambrosia artemisiifolia); test: as above
Outline: as §1

[27] = system: palmer (palmer amaranth, palmer pigweed, Amaranthus palmeri); test: as above
Outline: as §1

[28] = system: kochia (Bassia scoparia); test: as above
Outline: as §1

[29] = 62 g ai/ha, 0 = no effect, 100 = complete control
[30] = 62 g ai/ha, postemergence, 10 days, 0 = no effect, 100 = complete control
[31] = Postemergence, 16 g ai/ha, greenhouse 10 days, 0 no effect, 100 complete control

CC(C)COC(=O)C1=CCC(NC(=O)C2(C)CN(c3cc(Cl)cc(Cl)c3)C(=O)O2)C1 (stereo not shown) [Compound 156]
0: Blackgrass plant response rating ([1]; 16 g ai/ha, 0 to 100 scale) | Ryegrass, Italian plant response rating ([3]; 16 g ai/ha, 0 to 100 scale) | Corn plant response rating ([5]; 16 g ai/ha, 0 to 100 scale) | Barnyardgrass plant response rating ([6]; 16 g ai/ha, 0 to 100 scale) | Soybean plant response rating ([7]; 16 g ai/ha, 0 to 100 scale) | Soybean plant response rating (0-100) [7, 29] | Oat, Wild plant response rating ([8]; 16 g ai/ha, 0 to 100 scale) | Oat, Wild plant response rating (0-100) [8, 29] | Ragweed plant response rating ([9]; 16 g ai/ha, 0 to 100 scale) | Ragweed plant response rating (0-100) [9, 29]
55: Plant response rating, Barnyardgrass (0 to 100 scale, 0 is no effect and 100 is complete control) [13]
60: Ryegrass, Italian plant response rating (0 to 100 scale) [18, 31] | Soybean plant response rating (0-100) [24, 30]
90: Foxtail, Green plant response rating (0-100) [4, 29] | Plant response rating, Sedge, Umbrella (0 to 100 scale, 0 is no effect and 100 is complete control) [15] | Blackgrass plant response rating (0-100) [16, 30] | Foxtail, Green plant response rating (0-100) [20, 30] | Corn plant response rating (0 to 100 scale) [21, 31] | Pigweed, Palmer plant response rating (0-100) [27, 30] | Pigweed, Palmer plant response rating (0 to 100 scale) [27, 31]
10: Wheat plant response rating ([2]; 16 g ai/ha, 0 to 100 scale)
45: Plant response rating, Rice (0 to 100 scale, 0 is no effect and 100 is complete control) [12]
80: Pigweed, Palmer plant response rating (0-100) [10, 29] | Horseweed plant response rating (0-100) [19, 30] | Foxtail, Green plant response rating (0 to 100 scale) [20, 31] | Galium plant response rating (0-100) [22, 30] | Galium plant response rating (0 to 100 scale) [22, 31] | Kochia plant response rating (0-100) [28, 30] | Kochia plant response rating (0 to 100 scale) [28, 31]
75: Plant response rating, Ducksalad (0 to 100 scale, 0 is no effect and 100 is complete control) [14]
70: Kochia plant response rating (0-100) [11, 29] | Blackgrass plant response rating (0 to 100 scale) [16, 31] | Wheat plant response rating (0-100) [17, 30] | Ryegrass, Italian plant response rating (0-100) [18, 30] | Oat, Wild plant response rating (0-100) [25, 30]
40: Foxtail, Green plant response rating ([4]; 16 g ai/ha, 0 to 100 scale)
100: Corn plant response rating (0-100) [21, 30] | Barnyardgrass plant response rating (0-100) [23, 30] | Barnyardgrass plant response rating (0 to 100 scale) [23, 31]
50: Wheat plant response rating (0-100) [2, 29] | Corn plant response rating (0-100) [5, 29] | Barnyardgrass plant response rating (0-100) [6, 29] | Wheat plant response rating (0 to 100 scale) [17, 31] | Soybean plant response rating (0 to 100 scale) [24, 31] | Ragweed plant response rating (0-100) [26, 30]
30: Blackgrass plant response rating (0-100) [1, 29] | Ryegrass, Italian plant response rating (0-100) [3, 29] | Horseweed plant response rating (0 to 100 scale) [19, 31] | Ragweed plant response rating (0 to 100 scale) [26, 31]
20: Pigweed, Palmer plant response rating ([10]; 16 g ai/ha, 0 to 100 scale) | Kochia plant response rating ([11]; 16 g ai/ha, 0 to 100 scale) | Oat, Wild plant response rating (0 to 100 scale) [25, 31]

— patent US20260285850A1, “SUBSTITUTED OXAZOLIDINONES AND IMIDAZOLINONES AS HERBICIDES” (FMC CORPORATION, priority 2023, published 2026)
